These results are taken from patent US8680149B2, “1-amino-alkylcyclohexane derivatives for the treatment of mast cell mediated diseases” (Merz Pharma GmbH & Co. KGaA, priority 2008, dated 2014).

Assay [1] has as its target α9α10 nicotinic Acetylcholine Receptor (Rattus norvegicus, UniProt P43144+Q9JLB5). As to conditions: cited from earlier work.
Assay [2] concerns human mast cell line HMC-1. As to the kind of experiment: Mast cell degranulation in vitro: histamine concentration in culture medium by sandwich-ELISA. In kind it is cell-based. As to conditions: for inhibition of cholinergic agonist-induced mast cell degranulation (histamine concentration in culture supernatant): neramexane 10E-6M to 10E-16M added 5 minutes prior to cholinergic stimulus, histamine determined 10 minutes after addition; for responsiveness of HMC-1 cells (degranulation) at low calcium: low calcium concentration; for induction of mast cell degranulation (histamine concentration in culture supernatant): calcium concentration elevated to 1 mM, histamine 10 minutes after addition. The procedure:
The human mast cell line HMC-1 is obtained from J. H. Butterfield (Minnesota, USA) and cultured under standard conditions in RPMI Medium 1640 (GIBCO, Karlsruhe, Germany) at 37° C. For functional assays, the calcium concentration of the medium is adjusted to 1 mM.
The Mast cell degranulation is monitored by determination of histamine concentration in the culture medium using a sandwich-ELISA from IBL (Hamburg, Germany).Histamine concentration is determined in untreated cells, medium without cells, HMC-1 cells treated with calcimycin, (a calcium ionophore,used as positive control). Additional controls to check reagibilty of the cells are LPS (lipopolysaccharide) and PMA (phorbol 12-myristate 13-acetate). Histamine concentration is determined 10 minutes after addition of the respective substances. Nicotine and choline are used as stimulus for nAChR, muscarine as stimulus for mAChR, and a combination of acetylcholine and eserine (an acetylcholinesterase inhibitor) is used as pancholinergic stimulus. Neramexane is tested at concentrations ranging from 10E-6M to 10E-16M and is added to the culture medium 5 minutes prior to the respective cholinergic stimulus. All experiments are performed twice in quadruplicate.
Statistical analysis is performed using the Wilcoxon sum-of-ranks test (available on www.statpages.net).
In order to determine the sensitivity of mast cells towards cholinergic signals, the HMC-1 cell line cultured under standard conditions with either low or high calcium concentrations is used.
A general note: In an ELISA, binding on a coated surface is turned into a signal by an enzyme label.

The mark [3] stands for this setting: neramexane at concentrations higher than 1 mM.

α9α10 nicotinic Acetylcholine Receptor, sequence (P43144 26-479): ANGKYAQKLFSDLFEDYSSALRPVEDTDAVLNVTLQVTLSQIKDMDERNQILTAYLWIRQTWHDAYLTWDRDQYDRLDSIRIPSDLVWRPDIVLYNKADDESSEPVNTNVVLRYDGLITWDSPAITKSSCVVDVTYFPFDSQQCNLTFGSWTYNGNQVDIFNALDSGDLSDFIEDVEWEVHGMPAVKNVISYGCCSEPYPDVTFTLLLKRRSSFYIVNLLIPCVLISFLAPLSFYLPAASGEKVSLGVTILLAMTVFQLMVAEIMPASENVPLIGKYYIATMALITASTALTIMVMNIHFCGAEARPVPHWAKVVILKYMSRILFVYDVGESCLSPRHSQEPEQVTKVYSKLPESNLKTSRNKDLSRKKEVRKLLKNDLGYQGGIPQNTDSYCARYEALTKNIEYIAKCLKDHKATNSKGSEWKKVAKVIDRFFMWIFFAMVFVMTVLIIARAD
α9α10 nicotinic Acetylcholine Receptor, sequence (Q9JLB5 25-447): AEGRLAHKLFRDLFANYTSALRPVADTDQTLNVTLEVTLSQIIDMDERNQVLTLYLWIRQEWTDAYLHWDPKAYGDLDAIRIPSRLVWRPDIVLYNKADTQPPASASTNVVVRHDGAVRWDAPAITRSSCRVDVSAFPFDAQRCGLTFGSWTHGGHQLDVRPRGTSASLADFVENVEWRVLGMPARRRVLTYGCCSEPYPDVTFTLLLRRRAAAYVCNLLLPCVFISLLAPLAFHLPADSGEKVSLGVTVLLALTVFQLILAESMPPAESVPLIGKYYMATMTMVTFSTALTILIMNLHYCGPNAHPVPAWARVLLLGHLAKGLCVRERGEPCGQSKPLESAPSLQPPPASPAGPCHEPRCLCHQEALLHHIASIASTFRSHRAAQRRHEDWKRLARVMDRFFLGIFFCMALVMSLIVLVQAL

On to `CC1(C)CC(C)(C)CC(C)(N)C1` [Neramexane, 1-amino-1,3,3,5,5-pentamethylcyclohexane], for which, in assay [1], the “blockade of α9α10 nicotinic Acetylcholine Receptor” value is given as “blocker” and the “mode of antagonism at α9α10 nicotinic Acetylcholine Receptor” value is “non-competitive antagonist”. Further, in assay [1] (setting [3]), the “dependence of blockage on membrane potential” value was “only slightly dependent on the membrane potential” and the “effect on rate of desensitization” value is given as “not to modify the rate of desensitization”. Besides, the “inhibition of cholinergic agonist-induced mast cell degranulation (histamine concentration in culture supernatant)” value in assay [2] (HMC-1 cells, calcium 1 mM) was “dose-dependent inhibitory effect”.

Consider `CC1(C)CC(C)(C)CC(C)(N)C1.CS(=O)(=O)O` [Neramexane-mesylate], for which, in assay [2] (HMC-1 cells, calcium 1 mM), the “inhibition of cholinergic agonist-induced mast cell degranulation (histamine concentration in culture supernatant)” value was “inhibits the observed effects in equimolar concentrations and, dose-dependently, even in lower concentrations than the respective agonist”.

`CNc1ccc2oc(C[C@H]3O[C@@]4(CC[C@H]3C)O[C@H]([C@H](C)C(=O)c3ccc[nH]3)[C@H](C)C[C@H]4C)nc2c1C(=O)O` [calcimycine, calcimycin]: in assay [2], the “responsiveness of HMC-1 cells (degranulation) at low calcium” value is recorded as “unresponsive”.

As for `C[C@@H]1O[C@H](C[N+](C)(C)C)C[C@H]1O` [muscarine], the “induction of mast cell degranulation (histamine concentration in culture supernatant)” value in assay [2] (HMC-1 cells) is “No histamine liberation”.

For `CN1CCCC1c1cccnc1` (centres unmarked) [nicotine], the “concentration sufficient to induce complete degranulation” value in assay [2] (HMC-1 cells, calcium 1 mM) was “Nanomolar concentrations”. Further, the “induction of mast cell degranulation (histamine concentration in culture supernatant)” value in assay [2] (HMC-1 cells) was “dose-dependently produce mast cell degranulation”. The “responsiveness of HMC-1 cells (degranulation) at low calcium” value in assay [2] is given as “unresponsive”.
